Experimental data from patent US20260198493A1, “HYDRAZIDE COMPOUND AND AGRICULTURAL/HORTICULTURAL FUNGICIDE” (Nippon Soda Co., Ltd., priority 2022, published 2026).

How the values were obtained:
[1] = system: Botrytis cinerea; type: cell-based; details: 120 h, 25 ppm by volume, Vogel medium, 20° C., five days, dark, read-out: growth inhibition ratio
[2] = system: Fusarium graminearum; test: microbe, parasite or virus in culture; type: cell-based; details: 96 h, read-out: growth inhibition ratio
[3] = system: Colletotrichum acutatum; test: Fungicidal effect test against fungi causing apple anthracnose; details: 96 h, read-out: growth inhibition ratio
[4] = system: Glomerella cingulata; test: Fungicidal effect test against fungi causing grape ripe rot disease; details: Colletotrichum gloeosporioides, 72 h, read-out: growth inhibition ratio
[5] = system: Botrytis cinerea; test: Control test of cucumber gray mold (sprayed young cucumber seedlings); type: in vivo; details: 96 h, four days after inoculation; for pest or weed control at 25 ppm: 25 ppm by mass spray; for pest or weed control at 125 ppm: 125 ppm by mass spray
Protocol: Then, the drug liquid was sprayed onto young cucumber seedlings cultivated in a nursery pot (variety “Jihai”-based, cotyledon stage), and then air-dried. […] They were left still in a moist room at 20° C. Four days after inoculation, leaves of the young cucumber seedlings were visually observed, and the control value was calculated from the lesion area ratio in accordance with the following equation. [formula]

[6] = system: Venturia inaequalis; test: Control test of apple scab disease (sprayed young apple seedlings); type: in vivo; details: 125 ppm by mass spray, 12 to 14 days after inoculation
Protocol: [formula] […] Then, the drug liquid was sprayed onto young apple seedlings cultivated in a nursery pot (variety “Orin”, three-to four-leaf stage), and then air-dried. Thereafter, conidiospores of fungi causing apple scab disease (Venturia inaequalis) were inoculated thereon (treated area). As a control, the conidiospores were inoculated in a similar manner to the above on young apple seedlings unsprayed with the drug liquid (untreated area). They were left still at 20° C. in a moist room with light and dark cycles repeated every 12 hours. 12 Days to 14 days after inoculation, leaves of young apple seedlings were visually observed, and the control value was calculated from the lesion area ratio in accordance with the equation used in the control test of cucumber gray mold.

[7] = system: Erysiphe graminis f.sp.tritici; test: Control test of wheat powdery mildew disease (sprayed young wheat seedlings); type: in vivo; details: Blumeria graminis, 144 h, 125 ppm by mass spray, six days after inoculation

Cc1ccc(CNNC(=O)c2cc(C)nnc2Oc2cccc(C3CC3)c2F)c(C)c1 [b-1]
≥ 75%: inhibition of growth at 25 ppm [1] | inhibition of growth at 25 ppm [2] | inhibition of growth at 25 ppm [3] | inhibition of growth at 25 ppm [4]

CC(=S)N(Cc1ccc(C)cc1C)NC(=O)c1cc(C)nnc1Oc1cccc(C2CC2)c1F [b-66, 3-(3-Cyclopropyl-2-fluorophenoxy)-N′-(2,4-dimethylbenzyl)-N′-ethanethioyl-6-methylpyridazine-4-carbohydrazide]
≥ 75%: inhibition of growth at 25 ppm [1] | pest or weed control at 25 ppm [5] | pest or weed control at 125 ppm [5] | pest or weed control at 125 ppm [6] | pest or weed control at 125 ppm [7] | inhibition of growth at 25 ppm [3] | inhibition of growth at 25 ppm [4]

COC(=O)N(Cc1ccc(C)cc1C)NC(=O)c1cc(C)nnc1Oc1cccc(Br)c1Cl [b-68]
≥ 75%: inhibition of growth at 25 ppm [1] | pest or weed control at 125 ppm [5] | pest or weed control at 125 ppm [6] | pest or weed control at 125 ppm [7] | inhibition of growth at 25 ppm [3] | inhibition of growth at 25 ppm [4]

COC(=O)N(Cc1ccc(C)cc1C)NC(=O)c1cc(Cl)nnc1Oc1ccc2c(c1)OCO2 [b-81]
≥ 75%: inhibition of growth at 25 ppm [1] | pest or weed control at 125 ppm [5] | pest or weed control at 125 ppm [6] | pest or weed control at 125 ppm [7] | inhibition of growth at 25 ppm [3] | inhibition of growth at 25 ppm [4]

COC(=O)N(Cc1ccc(OC)cc1OC)NC(=O)c1cc(C)nnc1Oc1cccc(C2CC2)c1F [b-83]
≥ 75%: inhibition of growth at 25 ppm [1] | pest or weed control at 125 ppm [5] | pest or weed control at 125 ppm [6] | pest or weed control at 125 ppm [7] | inhibition of growth at 25 ppm [3] | inhibition of growth at 25 ppm [4]

COC(=O)N(Cc1ccc(C)cc1C)NC(=O)c1c(Oc2cccc(Br)c2F)nnc2c1CCC2 [b-92, Methyl 2-(3-(3-bromo-2-fluorophenoxy)-6,7-dihydro-5H-cyclopenta[c]pyridazine-4-carbonyl)-1-(2,4-dimethylbenzyl)hydrazine-1-carboxylate]
≥ 75%: inhibition of growth at 25 ppm [1] | pest or weed control at 25 ppm [5] | pest or weed control at 125 ppm [5] | pest or weed control at 125 ppm [6] | pest or weed control at 125 ppm [7] | inhibition of growth at 25 ppm [3] | inhibition of growth at 25 ppm [4]

COC(=O)N(Cc1ccc(C)cc1C)NC(=O)c1cc(C)nnc1Oc1cncc(Br)c1 [b-96]
≥ 75%: inhibition of growth at 25 ppm [1] | pest or weed control at 125 ppm [5] | pest or weed control at 125 ppm [6] | pest or weed control at 125 ppm [7] | inhibition of growth at 25 ppm [3] | inhibition of growth at 25 ppm [4]

COC(=O)N(Cc1ccc(C)cc1)NC(=O)c1cc(C)nnc1Oc1cccc(C2CC2)c1F [b-101]
≥ 75%: inhibition of growth at 25 ppm [1] | pest or weed control at 25 ppm [5] | pest or weed control at 125 ppm [5] | pest or weed control at 125 ppm [6] | pest or weed control at 125 ppm [7] | inhibition of growth at 25 ppm [3] | inhibition of growth at 25 ppm [4]

COC(=O)N(Cc1ccccc1C)NC(=O)c1cc(C)nnc1Oc1cccc(C2CC2)c1F [b-103]
≥ 75%: inhibition of growth at 25 ppm [1] | pest or weed control at 25 ppm [5] | pest or weed control at 125 ppm [5] | pest or weed control at 125 ppm [6] | pest or weed control at 125 ppm [7] | inhibition of growth at 25 ppm [3] | inhibition of growth at 25 ppm [4]

COC(=O)N(Cc1ccc(C(F)(F)F)cc1C)NC(=O)c1cc(C)nnc1Oc1cccc(C2CC2)c1F [b-109]
≥ 75%: inhibition of growth at 25 ppm [1] | pest or weed control at 25 ppm [5] | pest or weed control at 125 ppm [5] | pest or weed control at 125 ppm [6] | pest or weed control at 125 ppm [7] | inhibition of growth at 25 ppm [3] | inhibition of growth at 25 ppm [4]

COC(=O)N(Cc1ccc(C)cc1C)NC(=O)c1cc(C)nnc1Oc1cccc(I)c1 [b-114]
≥ 75%: inhibition of growth at 25 ppm [1] | pest or weed control at 125 ppm [5] | pest or weed control at 125 ppm [6] | pest or weed control at 125 ppm [7] | inhibition of growth at 25 ppm [3] | inhibition of growth at 25 ppm [4]

COC(=O)N(Cc1ccc(F)cc1C)NC(=O)c1cc(C)nnc1Oc1cccc(C2CC2)c1F [b-121]
≥ 75%: inhibition of growth at 25 ppm [1] | pest or weed control at 25 ppm [5] | pest or weed control at 125 ppm [5] | pest or weed control at 125 ppm [6] | pest or weed control at 125 ppm [7] | inhibition of growth at 25 ppm [3] | inhibition of growth at 25 ppm [4]

COC(=O)N(Cc1ccc(OC)cc1C)NC(=O)c1ccncc1Oc1cccc(C2CC2)c1F [b-151]
≥ 75%: inhibition of growth at 25 ppm [1] | pest or weed control at 25 ppm [5] | pest or weed control at 125 ppm [5] | pest or weed control at 125 ppm [6] | pest or weed control at 125 ppm [7] | inhibition of growth at 25 ppm [3] | inhibition of growth at 25 ppm [4]

COC(=O)N(Cc1ccc(OC(F)(F)F)cc1C)NC(=O)c1cc(C)nnc1Oc1cccc(C2CC2)c1F [b-158]
≥ 75%: inhibition of growth at 25 ppm [1] | pest or weed control at 25 ppm [5] | pest or weed control at 125 ppm [5] | pest or weed control at 125 ppm [6] | pest or weed control at 125 ppm [7] | inhibition of growth at 25 ppm [3] | inhibition of growth at 25 ppm [4]

COC(=O)N(Cc1cccc(C)c1)NC(=O)c1cc(C)nnc1Oc1cccc(C2CC2)c1F [b-159]
≥ 75%: inhibition of growth at 25 ppm [1] | pest or weed control at 25 ppm [5] | pest or weed control at 125 ppm [5] | pest or weed control at 125 ppm [6] | pest or weed control at 125 ppm [7] | inhibition of growth at 25 ppm [3] | inhibition of growth at 25 ppm [4]

COC(=O)N(Cc1ccc(C2CC2)cc1)NC(=O)c1cc(C)nnc1Oc1cccc(C2CC2)c1F [b-163]
≥ 75%: inhibition of growth at 25 ppm [1] | pest or weed control at 25 ppm [5] | pest or weed control at 125 ppm [5] | pest or weed control at 125 ppm [6] | pest or weed control at 125 ppm [7] | inhibition of growth at 25 ppm [3] | inhibition of growth at 25 ppm [4]

Cc1ccc(CN(NC(=O)c2cc(C)nnc2Oc2cccc(C3CC3)c2F)C(=O)OCc2ccccc2)c(C)c1 [b-182]
≥ 75%: inhibition of growth at 25 ppm [1] | pest or weed control at 25 ppm [5] | pest or weed control at 125 ppm [5] | pest or weed control at 125 ppm [6] | pest or weed control at 125 ppm [7] | inhibition of growth at 25 ppm [3] | inhibition of growth at 25 ppm [4]

Cc1ccc(CN(NC(=O)c2cc(C)nnc2Oc2cccc(C3CC3)c2F)C(=O)OCC2CC2)c(C)c1 [b-183]
≥ 75%: inhibition of growth at 25 ppm [1] | pest or weed control at 25 ppm [5] | pest or weed control at 125 ppm [5] | pest or weed control at 125 ppm [6] | pest or weed control at 125 ppm [7] | inhibition of growth at 25 ppm [3] | inhibition of growth at 25 ppm [4]

COC(=O)N(Cc1ccc(C)cc1C)NC(=O)c1ccnnc1Oc1cccc(C2CC2)c1F [b-189]
≥ 75%: inhibition of growth at 25 ppm [1] | pest or weed control at 25 ppm [5] | pest or weed control at 125 ppm [5] | pest or weed control at 125 ppm [6] | pest or weed control at 125 ppm [7] | inhibition of growth at 25 ppm [3] | inhibition of growth at 25 ppm [4]

COC(=O)N(Cc1ccc(C)cc1C)NC(=O)c1ccnnc1Oc1cccc(Cl)c1F [b-190]
≥ 75%: inhibition of growth at 25 ppm [1] | pest or weed control at 25 ppm [5] | pest or weed control at 125 ppm [5] | pest or weed control at 125 ppm [6] | pest or weed control at 125 ppm [7] | inhibition of growth at 25 ppm [3] | inhibition of growth at 25 ppm [4]

COC(=O)N(Cc1ccc(OC)cc1C)NC(=O)c1c(C)cnnc1Oc1cccc(C2CC2)c1F [b-192]
≥ 75%: inhibition of growth at 25 ppm [1] | pest or weed control at 25 ppm [5] | pest or weed control at 125 ppm [5] | pest or weed control at 125 ppm [6] | pest or weed control at 125 ppm [7] | inhibition of growth at 25 ppm [3] | inhibition of growth at 25 ppm [4]

COC(=O)N(Cc1ccc(OC)cc1C)NC(=O)c1c(F)cncc1Oc1cccc(C2CC2)c1F [b-201]
≥ 75%: inhibition of growth at 25 ppm [1] | pest or weed control at 25 ppm [5] | pest or weed control at 125 ppm [5] | pest or weed control at 125 ppm [6] | pest or weed control at 125 ppm [7] | inhibition of growth at 25 ppm [3] | inhibition of growth at 25 ppm [4]

COC(=O)N(Cc1ccc(C)cc1C)NC(=O)c1c(Cl)cncc1Oc1cccc(C2CC2)c1F [b-205]
≥ 75%: inhibition of growth at 25 ppm [1] | pest or weed control at 125 ppm [5] | pest or weed control at 125 ppm [6] | pest or weed control at 125 ppm [7] | inhibition of growth at 25 ppm [3] | inhibition of growth at 25 ppm [4]

COC(=O)N(Cc1ccc(OC)cc1C)NC(=O)c1c(Cl)cncc1Oc1cccc(C2CC2)c1F [b-206]
≥ 75%: inhibition of growth at 25 ppm [1] | pest or weed control at 25 ppm [5] | pest or weed control at 125 ppm [5] | pest or weed control at 125 ppm [6] | pest or weed control at 125 ppm [7] | inhibition of growth at 25 ppm [3] | inhibition of growth at 25 ppm [4]

COC(=O)N(Cc1ccc(C)cc1C)/N=C(\OC)c1cc(C)nnc1Oc1cccc(Cl)c1F [b-220, Methyl (Z)-2-((3-(3-chloro-2-fluorophenoxy)-6-methylpyridazin-4-yl)(methoxy)methylene)-1-(2,4-dimethylbenzyl)hydrazine-1-carboxylate]
≥ 75%: inhibition of growth at 25 ppm [1] | pest or weed control at 125 ppm [5] | pest or weed control at 125 ppm [6] | pest or weed control at 125 ppm [7] | inhibition of growth at 25 ppm [3] | inhibition of growth at 25 ppm [4]
